Assay results: patent US20220259551A1, “METHODS OF OPTIMIZED EUGLENA FERMENTATION USING ENGINEERED TANK DESIGN” (NOBLEGEN INC., priority 2019, published 2022)

System: Euglena gracilis Z
Experiment: Effect of organic acids, with or without glucose, on Euglena growth in shake flasks (Example 9)
Type: cell-based
Conditions: for % Increase in biomass between 48 h and 120 h / Net change in biomass: higher levels of acids (~2-5 g/L) solely or with glucose (~15 g/L); for higher acid contribution to biomass when fed along with glucose vs maximum acid alone contribution: higher acid concentrations (2-5 g/L); for higher acid contribution to biomass when fed along with glucose vs maximum acid alone contribution / further improvement in net biomass concentration compared to 48 h: end of 120 h; for higher biomass compared to control (glucose alone): higher levels of acids (~2-5 g/L) + glucose ~15 g/L; for higher biomass compared to control (glucose alone) / higher biomass compared to glucose alone (control) / net biomass: end of 48 h; for higher biomass compared to glucose alone (control): lower acid supplementation (~0.0005-0.05 g/L) + glucose 15 g/L
[1] = fumaric acid 0.0005 g/L + glucose 15 g/L, 48 h
[2] = lactic acid 0.05 g/L + glucose 15 g/L, 48 h
[3] = no glucose, acid conc. 0.05 g/L, 48 h

| SMILES | % Increase in biomass between 48 h and 120 h [%] | Net change in biomass (incubation 48 h) [g/L] | Net change in biomass (incubation 120 h) [g/L] | higher acid contribution to biomass when fed along with glucose vs maximum acid alone contribution [%] | higher biomass compared to control (glucose alone) [%] | net biomass (~5 g/L as sole carbon source) [g/L] | Net biomass conc. (48 h) [3] [g/L] | also measured |
| --- | --- | --- | --- | --- | --- | --- | --- | --- |
| O=C(O)/C=C/C(=O)O [Fumaric acid only] | 4.8 | 2.10 | 2.20 |  |  |  |  | Net biomass conc. (48 h) (no glucose, acid conc. 0.0005 g/L, 48 h): 0.70 g/L |
| O=C(O)/C=C/C(=O)O [fumaric acid] |  |  |  | 46.67 | 12.3 | 2.10 |  | conversion efficiency (15 g/L glucose and 2 g/L fumaric acid, 120 h): 57.4%; conversion efficiency (15 g/L glucose and 5 g/L fumaric acid, 120 h): 58.41%; biomass yield (g)/g of carbon, higher than glucose alone [1]: 8.4%; higher conversion efficiency compared to glucose alone (15 g/L) [1]: 21.9%; maximum biomass obtained (fumaric acid 2 g/L and 5 g/L): ~1.5 g/L; higher biomass compared to glucose alone (control): 7.5% |
| O=C(O)CCC(=O)O [succinate, succinic acid] |  |  |  |  | 3.1 | 2.20 |  | further improvement in net biomass concentration compared to 48 h (~5 g/L as sole carbon source): 13.6% |
| O=C[C@H](O)[C@@H](O)[C@H](O)[C@H](O)CO [Glucose (Control)] | 0.0 | 6.50 | 6.50 |  |  |  |  | Net biomass conc. (48 h) (Glucose conc. 15 g/L, no acid, 48 h): 6.70 g/L |
| CC(O)C(=O)O (stereo not drawn) [lactic acid] |  |  |  | 5.56 | 1.5 | 2.10 |  | biomass yield (g)/g of carbon [2]: 1.35 g/g of carbon; biomass yield (g)/g of carbon, higher than the control [2]: ~13%; conversion efficiency [2]: 54.8%; conversion efficiency, higher than the glucose control [2]: ~8%; higher biomass compared to glucose alone (control): 13.4%; further improvement in net biomass concentration compared to 48 h (~5 g/L as sole carbon source): 9.5% |
| O=C(O)CC(O)C(=O)O (stereo not drawn) [Malic acid only] | −7.1 | 1.40 | 1.30 |  |  |  | 0.60 |  |
| CC(=O)C(=O)O [Pyruvate only] | −11.1 | 0.90 | 0.80 |  |  |  | 1.00 |  |
| CC(=O)C(=O)O [pyruvate, pyruvic acid] |  |  |  | 72.73 |  |  |  | net biomass (~2 g/L as sole carbon source): 0.90 g/L |
| O=C(O)CCC(=O)O [Succinic acid only] | 13.6 | 2.20 | 2.50 |  |  |  | 0.70 |  |
| O=C(O)CC(O)C(=O)O (stereo not drawn) [malic acid] |  |  |  | 63.64 | 4.6 | 1.40 |  | higher biomass compared to glucose alone (control): −3% |
| CC(O)C(=O)O (stereo not drawn) [Lactic acid only] | 9.5 | 2.10 | 2.30 |  |  |  | 0.60 |  |
